Experimental data from US8153809B2, “Dihydropyridone ureas as P2X7 modulators” (Roche Palo Alto LLC, priority 2008, dated 2012).

Biological target: T1, P2X7 (UniProt Q99572)
T1 sequence (Q99572 1-595): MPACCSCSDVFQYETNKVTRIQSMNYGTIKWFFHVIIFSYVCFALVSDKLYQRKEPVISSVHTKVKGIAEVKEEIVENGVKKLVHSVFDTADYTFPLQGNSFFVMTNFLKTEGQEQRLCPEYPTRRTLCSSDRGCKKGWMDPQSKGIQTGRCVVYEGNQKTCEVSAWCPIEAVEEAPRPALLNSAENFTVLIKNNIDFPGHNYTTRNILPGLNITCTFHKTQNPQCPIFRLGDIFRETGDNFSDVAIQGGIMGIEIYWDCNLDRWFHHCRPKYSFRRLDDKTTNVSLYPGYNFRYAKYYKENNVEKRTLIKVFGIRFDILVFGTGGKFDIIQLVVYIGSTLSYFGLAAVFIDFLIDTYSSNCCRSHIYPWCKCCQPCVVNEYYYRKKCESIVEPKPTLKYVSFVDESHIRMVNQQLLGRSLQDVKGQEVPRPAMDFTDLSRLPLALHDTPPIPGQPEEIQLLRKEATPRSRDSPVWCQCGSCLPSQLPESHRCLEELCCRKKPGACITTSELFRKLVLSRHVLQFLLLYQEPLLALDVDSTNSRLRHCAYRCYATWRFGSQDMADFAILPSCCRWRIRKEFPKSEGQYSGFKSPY
Test: pIC50 values for P2X7 (Table 1)
Assay type: cell-based
Experimental: Intracellular Calcium Flux (FLIPR) Assay
Compound and Reagent Preparation
Stock solutions of compounds were prepared from powders as a 10 mM DMSO stock solution. These solutions were stored at RT during the two week period of these experiments to prevent freeze-thaw of the DMSO stocks. The DMSO stocks were added to the appropriate assay buffer at a concentration of 10 μM, and then diluted serially to the final concentrations that were tested. […] The aqueous solutions of compounds as well as ATP (Sigma A7699) and BzATP (Sigma B6396) were prepared fresh for each day of experiment.
1321N1 cells stably expressing the full length human P2X7 gene (1321N1-hP2X7) and HEK293 cells stably expressing the full length rat P2X7 gene (HEK293-rP2X7) were obtained from the Roche Cell Culture Facility. 1321N1-hP2X7 cells were grown in Dulbecco's Modified Eagle's Medium (DMEM) high glucose supplemented with 10% FBS and 250 μg/mL G418. HEK293-rP2X7 cells were grown in DMEM/F-12 supplemented with 10% FBS, 1 mM CaCl2, 2 mM MgCl2, 2 mM L-Glutamine and 500 μg/ml G418. Cells were split such that they never became >70% confluent.
Intracellular Calcium Flux (FLIPR)
On the day prior to the experiment, 1321N1-hP2X7 or HEK293-rP2X7 cells were released into suspension with calcium-free PBS+Versene and washed by centrifugation with calcium-free PBS to remove the Versene.
On the day of the experiment, plates were washed with FLIPR buffer (calcium- and magnesium-free Hank's Balanced Salt Solution (HBSS) supplemented with 10 mM Hepes, 2.5 mM probenecid and 2 mM calcium chloride) using a BIO-TEK 96 channel plate washer and incubated with […] fluo-3 dye at 37° C. for one hr. The dye was then removed by plate washing and the cells were allowed to equilibrate for 20 min at room temperature with antagonist or vehicle (FLIPR buffer). Agonist (100 μM BzATP final concentration for hP2X7; 5 μM BzATP final concentration or rP2X7) was added online with the FLIPR and fluorescence measurements made at 1 sec intervals for 60 sec followed by 3 sec intervals for a further 4 min (5 min total). A final addition of 5 μM ionomycin was made and the maximal BzATP-evoked fluorescence normalized to the maximal ionomycin-evoked fluorescence.

| pIC50 | SMILES |
| --- | --- |
| 8.055 | COc1cc(Br)c(NC(=O)N2C=CC(=O)C[C@H]2c2ccc(F)cc2)cc1OC [Compound 3, (S)-2-(4-Fluoro-phenyl)-4-oxo-3,4-dihydro-2H-pyridine-1-carboxylic acid (2-bromo-4,5-dimethoxy-phenyl)-amide] |
| 7.4325 | COc1cc(NC(=O)N2C=CC(=O)C[C@H]2c2ccc(F)cc2)c(Br)cc1Cl [Compound 5, (S)-2-(4-Fluoro-phenyl)-4-oxo-3,4-dihydro-2H-pyridine-1-carboxylic acid (2-bromo-4-chloro-5-methoxy-phenyl)-amide] |
| 7.5 | COc1cc(NC(=O)N2C=CC(=O)C[C@H]2c2ccc(F)cc2)c(Br)cc1F [Compound 6, (S)-2-(4-Fluoro-phenyl)-4-oxo-3,4-dihydro-2H-pyridine-1-carboxylic acid (2-bromo-4-fluoro-5-methoxy-phenyl)-amide] |
| 7.873 | COc1cc(NC(=O)N2C=CC(=O)C[C@H]2c2ccc(F)cc2)c(Br)cc1C [Compound 12, (S)-2-(4-Fluoro-phenyl)-4-oxo-3,4-dihydro-2H-pyridine-1-carboxylic acid (2-bromo-5-methoxy-4-methyl-phenyl)-amide] |

Second part, the compound before the results:

| SMILES | pIC50 |
| --- | --- |
| COc1cc(NC(=O)N2C=CC(=O)C[C@H]2c2cc(F)cc(F)c2)c(Br)cc1C (stereo in doubt) [Compound 47, 2-(3,5-Difluoro-phenyl)-4-oxo-3,4-dihydro-2H-pyridine-1-carboxylic acid (2-bromo-5-methoxy-4-methyl-phenyl)-amide] | 6.987 |
| COc1cc(Br)c(NC(=O)N2C=CC(=O)CC2c2ccccc2)cc1OC (stereo not shown) [Compound 1, 4-Oxo-2-phenyl-3,4-dihydro-2H-pyridine-1-carboxylic acid (2-bromo-4,5-dimethoxy-phenyl)-amide] | 7.408 |
| COc1cc(NC(=O)N2C=CC(=O)CC2c2ccccc2)c(Br)cc1Cl (stereo not shown) [Compound 2, 4-Oxo-2-phenyl-3,4-dihydro-2H-pyridine-1-carboxylic acid (2-bromo-4-chloro-5-methoxy-phenyl)-amide] | 6.425 |
| COc1cc(NC(=O)N2C=CC(=O)C[C@H]2c2ccccc2)c(Br)cc1Cl [Compound 4, (S)-4-Oxo-2-phenyl-3,4-dihydro-2H-pyridine-1-carboxylic acid (2-bromo-4-chloro-5-methoxy-phenyl)-amide] | 7.476 |
| COc1cc(NC(=O)N2C=CC(=O)C[C@H]2c2ccc(F)cc2)c(Cl)cc1Cl [Compound 7, (S)-2-(4-Fluoro-phenyl)-4-oxo-3,4-dihydro-2H-pyridine-1-carboxylic acid (2,4-dichloro-5-methoxy-phenyl)-amide] | 6.73 |
| COc1cc(NC(=O)N2C=CC(=O)C[C@H]2c2ccc(F)cc2)c(Br)cc1C(F)(F)F [Compound 8, (S)-2-(4-Fluoro-phenyl)-4-oxo-3,4-dihydro-2H-pyridine-1-carboxylic acid (2-bromo-5-methoxy-4-trifluoromethyl-phenyl)-amide] | 6.09 |
| O=C1C=CN(C(=O)Nc2cc(Cl)c(Cl)cc2Br)[C@H](c2ccc(F)cc2)C1 [Compound 9, (S)-2-(4-Fluoro-phenyl)-4-oxo-3,4-dihydro-2H-pyridine-1-carboxylic acid (2-bromo-4,5-dichloro-phenyl)-amide] | 6.11 |
| O=C1C=CN(C(=O)Nc2cc(I)c(Cl)cc2Br)[C@H](c2ccc(F)cc2)C1 [Compound 10, (S)-2-(4-Fluoro-phenyl)-4-oxo-3,4-dihydro-2H-pyridine-1-carboxylic acid (2-bromo-4-chloro-5-iodo-phenyl)-amide] | 6.5175 |
| O=C1C=CN(C(=O)Nc2cc(C(F)(F)F)c(Cl)cc2Br)[C@H](c2ccc(F)cc2)C1 [Compound 11, (S)-2-(4-Fluoro-phenyl)-4-oxo-3,4-dihydro-2H-pyridine-1-carboxylic acid (2-bromo-4-chloro-5-trifluoromethyl-phenyl)-amide] | 6.015 |
